# Laboratory results reported in patent US4820694A, “Modifications of 3-O-demethylmycinose in macrocin and lactenocin” (priority 1986, dated 1989).
# Where two headings read alike, the source gives them in different places.
# How the values were obtained:
# Mycoplasma hyorhinis 29E = assay: broth-dilution microtiter MIC test; type: cell-based; details: Mycoplasma, 29E
# Protocol: (§1) The MIC's in Table III were determined by standard agar-dilution assays. The MIC's in Table IV were obtained using conventional brothdilution microtiter tests.
# [1] = system: Pasteurella hemolytica 22C; assay: broth-dilution microtiter MIC test; type: cell-based; details: Pasteurella, 22C
# Protocol: as §1
# Streptococcus sp. 19F = assay: broth-dilution microtiter MIC test; type: cell-based; details: Streptococcus, SP.19F
# Protocol: as §1
# [2] = system: Pasteurella multocida 22A; assay: broth-dilution microtiter MIC test; type: cell-based; details: Pasteurella multocida, 22A
# Protocol: as §1
# Mycoplasma synoviae 40A = assay: broth-dilution microtiter MIC test; type: cell-based; details: Mycoplasmopsis synoviae, 40A
# Protocol: as §1
# [3] = system: Pasteurella multocida 40G; assay: broth-dilution microtiter MIC test; type: cell-based; details: Pasteurella multocida, 40G
# Protocol: as §1
# [4] = system: Pasteurella multocida 17E; assay: broth-dilution microtiter MIC test; type: cell-based; details: Pasteurella multocida, 17E
# Protocol: as §1
# [5] = system: Mycoplasma gallisepticum 36H; assay: broth-dilution microtiter MIC test; type: cell-based; details: Mycoplasmoides gallisepticum, 36H
# Protocol: as §1
# [6] = system: Pasteurella multocida 60A; assay: broth-dilution microtiter MIC test; type: cell-based; details: Pasteurella multocida, 60A
# Protocol: as §1
# [7] = system: Staphylococcus aureus 19C; assay: broth-dilution microtiter MIC test; type: cell-based; details: Staphylococcus aureus, 19C
# Protocol: as §1
# [8] = system: Pasteurella hemolytica 23C; assay: broth-dilution microtiter MIC test; type: cell-based; details: Pasteurella, 23C
# Protocol: as §1
# [9] = system: Bordetella bronchiseptica; assay: broth-dilution microtiter MIC test; type: cell-based; details: Bordetella bronchiseptica
# Protocol: as §1
# [10] = system: Mycoplasma gallisepticum 15E; assay: broth-dilution microtiter MIC test; type: cell-based; details: Mycoplasmoides gallisepticum, 15E
# Protocol: as §1
# [11] = system: Pasteurella multocida 68C; assay: broth-dilution microtiter MIC test; type: cell-based; details: Pasteurella multocida, 68C
# Protocol: as §1
# [12] = system: Pasteurella hemolytica 41D; assay: broth-dilution microtiter MIC test; type: cell-based; details: Pasteurella, 41D
# Protocol: as §1
# [13] = system: Mycoplasma gallisepticum 29C; assay: broth-dilution microtiter MIC test; type: cell-based; details: Mycoplasmoides gallisepticum, 29C
# Protocol: as §1
# [14] = system: Haemophilus influenzae C.L.; assay: standard agar-dilution MIC assay; type: cell-based; details: Haemophilus influenzae; agar-dilution; Ampicillin-sensitive strain; read-out: MIC
# Protocol: as §1
# [15] = system: Klebsiella pneumoniae X68; assay: standard agar-dilution MIC assay; type: cell-based; details: Klebsiella pneumoniae, X68
# Protocol: as §1
# [16] = system: Streptococcus pyogenes C203; assay: standard agar-dilution MIC assay; type: cell-based; details: Streptococcus pyogenes, C203
# Protocol: as §1
# [17] = system: Streptococcus Group D X66; assay: standard agar-dilution MIC assay; type: cell-based; details: read-out: MIC
# Protocol: as §1
# [18] = system: Staphylococcus epidermidis EPI1; assay: standard agar-dilution MIC assay; type: cell-based; details: Staphylococcus epidermidis, EPI1
# Protocol: as §1
# [19] = system: Staphylococcus aureus X1.1; assay: standard agar-dilution MIC assay; type: cell-based; details: Staphylococcus aureus, X1.1
# Protocol: as §1
# Escherichia coli EC14 = assay: standard agar-dilution MIC assay; type: cell-based
# Protocol: as §1
# [20] = system: Staphylococcus aureus V41; assay: standard agar-dilution MIC assay; type: cell-based; details: Staphylococcus aureus, V41
# Protocol: as §1
# [21] = system: Streptococcus Group D 9960; assay: standard agar-dilution MIC assay; type: cell-based; details: GROUPD9960, read-out: MIC
# Protocol: as §1
# [22] = system: Staphylococcus aureus X400; assay: standard agar-dilution MIC assay; type: cell-based; details: Staphylococcus aureus, X400
# Protocol: as §1
# [23] = system: Staphylococcus epidermidis EP12; assay: standard agar-dilution MIC assay; type: cell-based
# Protocol: as §1
# [24] = system: Pseudomonas aeruginosa X239; assay: standard agar-dilution MIC assay; type: cell-based; details: Pseudomonas aeruginosa, X239
# Protocol: as §1
# [25] = system: Haemophilus influenzae 76; assay: standard agar-dilution MIC assay; type: cell-based; details: Haemophilus influenzae, 76
# Protocol: as §1
# [26] = system: Streptococcus pyogenes C203; assay: protection of mice experimentally infected with S. pyogenes C203; type: in vivo; details: mice, mg/kg × 2, doses given 1 and 4 hours postinfection, read-out: ED50
# Outline: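 Mice experimentally infected with S. pyogenes C203 got two doses of test compound, at 1 and 4 h postinfection. The ED50 is the dose in mg/kg (per dose, given twice) that protected 50% of the animals.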
# [27] = system: Staphylococcus aureus S13E; assay: microbe, parasite or virus in culture; type: cell-based; details: Staphylococcus aureus, S13E
# Protocol: as §1
# [28] = system: Streptococcus pneumoniae Park I; assay: microbe, parasite or virus in culture; type: cell-based; details: Streptococcus pneumoniae
# Protocol: as §1
# [29] = broth-dilution microtiter, read-out: MIC
# [30] = broth-dilution microtiter, Bovine isolate, read-out: MIC
# [31] = broth-dilution microtiter, Avian isolate, read-out: MIC
# [32] = agar-dilution, Ampicillin-resistant strain, read-out: MIC
smiles,measurement,setting,value
"CCC1OC(=O)CC(O)C(C)C(OC2OC(C)C(OC3CC(C)(O)C(O)C(C)O3)C(N(C)C)C2OC(C)=O)C(CC=O)CC(C)C(=O)C=CC(C)=CC1COC1OC(C)C(OC(C)=O)C(O)C1OC (stereo not drawn) [Compound 1, 2',4'""-Di-O-acetyl-macrocin]",MIC,Mycoplasma hyorhinis 29E; [29],25 µg/mL
same,MIC,[1],> 50 µg/mL
same,MIC,Streptococcus sp. 19F; [29],3.12 µg/mL
same,MIC,[2],> 50 µg/mL
same,MIC,Mycoplasma synoviae 40A; [29],1.56 µg/mL
same,MIC,[3],> 50 µg/mL
same,MIC,[4],> 50 µg/mL
same,MIC,[5],> 50 µg/mL
same,MIC,[6],> 50 µg/mL
same,MIC,[7]; [29],6.25 µg/mL
same,MIC,[8],> 50 µg/mL
same,MIC,[9],> 50 µg/mL
same,MIC,[10],> 50 µg/mL
same,MIC,[11],> 50 µg/mL
same,MIC,[12],> 50 µg/mL
same,MIC,[13]; [29],0.78 µg/mL
same,MIC,[14],64 µg/mL
same,MIC,[15],> 128 µg/mL
same,MIC,[16],1 µg/mL
same,MIC,[17],4 µg/mL
same,MIC,"[18]; agar-dilution, read-out: MIC",2 µg/mL
same,MIC,"[19]; agar-dilution, read-out: MIC",2 µg/mL
same,MIC,Escherichia coli EC14,> 128 µg/mL
same,MIC,"[20]; agar-dilution, Penicillin-resistant strain, read-out: MIC",2 µg/mL
same,MIC,[21],4 µg/mL
same,MIC,[22],4 µg/mL
same,MIC,"[23]; agar-dilution, read-out: MIC",2 µg/mL
same,MIC,[24],> 128 µg/mL
same,MIC,[25],1 µg/mL
same,ED50,"[26]; C203, Oral",43.5 mg/kg
same,ED50,"[26]; C203, sc, Subcutaneous",6.6 mg/kg
same,MIC,[27],4 µg/mL
same,MIC,"[28]; agar-dilution, read-out: MIC",0.5 µg/mL
"CCC1OC(=O)CC(O)C(C)C(OC2OC(C)C(OC3CC(C)(O)C(O)C(C)O3)C(N(C)C)C2OC(C)=O)C(CC=O)CC(C)C(=O)C=CC(C)=CC1COC1OC(C)C(OC(=O)CC(C)C)C(O)C1OC (stereo not drawn) [Compound 5, 2'-O-Acetyl-4'""-O-isovaleryl-macrocin]",MIC,Mycoplasma hyorhinis 29E,1.56 µg/mL
same,MIC,[1]; [29],> 50 µg/mL
same,MIC,Streptococcus sp. 19F,1.56 µg/mL
same,MIC,[2]; [29],> 50 µg/mL
same,MIC,Mycoplasma synoviae 40A,1.56 µg/mL
same,MIC,[3]; [29],> 50 µg/mL
same,MIC,[4]; [30],> 50 µg/mL
same,MIC,[5],50 µg/mL
same,MIC,[6]; [31],> 50 µg/mL
same,MIC,[7],3.12 µg/mL
same,MIC,[8]; [29],> 50 µg/mL
same,MIC,[9]; [29],> 50 µg/mL
same,MIC,[10],50 µg/mL
same,MIC,[11],50 µg/mL
same,MIC,[12]; [29],> 50 µg/mL
same,MIC,[13],1.56 µg/mL
same,MIC,[14],> 128 µg/mL
same,MIC,"[15]; agar-dilution, read-out: MIC",> 128 µg/mL
same,MIC,[16],1 µg/mL
same,MIC,[17],2 µg/mL
same,MIC,[18],2 µg/mL
same,MIC,[19],2 µg/mL
same,MIC,"Escherichia coli EC14; agar-dilution, read-out: MIC",> 128 µg/mL
same,MIC,[20],2 µg/mL
same,MIC,[21],2 µg/mL
same,MIC,[22],4 µg/mL
same,MIC,[23],2 µg/mL
same,MIC,"[24]; agar-dilution, read-out: MIC",> 128 µg/mL
same,MIC,[25]; [32],> 128 µg/mL
same,ED50,"[26]; C203, Oral",54.3 mg/kg
same,ED50,"[26]; C203, sc, Subcutaneous",9.2 mg/kg
same,MIC,[27],2 µg/mL
same,MIC,[28],0.5 µg/mL
"CCC1OC(=O)CC(O)C(C)C(OC2OC(C)C(OC3CC(C)(O)C(O)C(C)O3)C(N(C)C)C2OC(C)=O)C(CC=O)CC(C)C(=O)C=CC(C)=CC1COC1OC(C)C(OC(=O)CC(C)C)C(OC(=O)CC(C)C)C1OC (stereo not drawn) [Compound 7, 2'-O-ACETYL-3'"",4'""-di-O-isovaleryl-macrocin]",MIC,Mycoplasma hyorhinis 29E,6.25 µg/mL
same,MIC,[1]; [29],> 50 µg/mL
same,MIC,Streptococcus sp. 19F,3.12 µg/mL
same,MIC,[2]; [29],> 50 µg/mL
same,MIC,Mycoplasma synoviae 40A,3.12 µg/mL
same,MIC,[3]; [29],> 50 µg/mL
same,MIC,[4]; [30],> 50 µg/mL
same,MIC,[5],50 µg/mL
same,MIC,[6]; [31],> 50 µg/mL
same,MIC,[7],12.5 µg/mL
same,MIC,[8]; [29],> 50 µg/mL
same,MIC,[9]; [29],> 50 µg/mL
same,MIC,[10],12.5 µg/mL
same,MIC,[11]; [29],> 50 µg/mL
same,MIC,[12]; [29],> 50 µg/mL
same,MIC,[13],3.12 µg/mL
same,MIC,[14],> 128 µg/mL
same,MIC,"[15]; agar-dilution, read-out: MIC",> 128 µg/mL
same,MIC,[16],4 µg/mL
same,MIC,[17],16 µg/mL
same,MIC,[18],8 µg/mL
same,MIC,[19],8 µg/mL
same,MIC,"Escherichia coli EC14; agar-dilution, read-out: MIC",> 128 µg/mL
same,MIC,[20],8 µg/mL
same,MIC,[21],8 µg/mL
same,MIC,[22],16 µg/mL
same,MIC,[23],8 µg/mL
same,MIC,"[24]; agar-dilution, read-out: MIC",> 128 µg/mL
same,MIC,[25]; [32],> 128 µg/mL
same,ED50,"[26]; C203, Oral",71.4 mg/kg
same,ED50,"[26]; C203, sc, Subcutaneous",> 10 mg/kg
same,MIC,[27],8 µg/mL
same,MIC,[28],2 µg/mL
"CCC1OC(=O)CC(O)C(C)C(OC2OC(C)C(OC3CC(C)(O)C(O)C(C)O3)C(N(C)C)C2OC(C)=O)C(CC=O)CC(C)C(=O)C=CC(C)=CC1COC1OC(C)C(OC(=O)COc2ccccc2)C(OC(=O)COc2ccccc2)C1OC (stereo not drawn) [Compound 15, 2'-O-Acetyl-3'"",4'""-di-O-phenoxyacetyl-macrocin]",MIC,Mycoplasma hyorhinis 29E,6.25 µg/mL
same,MIC,[1]; [29],> 50 µg/mL
same,MIC,Streptococcus sp. 19F,3.12 µg/mL
same,MIC,[2]; [29],> 50 µg/mL
same,MIC,Mycoplasma synoviae 40A,3.12 µg/mL
same,MIC,[3]; [29],> 50 µg/mL
same,MIC,[4]; [30],> 50 µg/mL
same,MIC,[5],50 µg/mL
same,MIC,[6]; [31],> 50 µg/mL
same,MIC,[7],25 µg/mL
same,MIC,[8]; [29],> 50 µg/mL
same,MIC,[9]; [29],> 50 µg/mL
same,MIC,[10],50 µg/mL
same,MIC,[11]; [29],> 50 µg/mL
same,MIC,[12]; [29],> 50 µg/mL
same,MIC,[13],6.25 µg/mL
same,MIC,[14],> 128 µg/mL
same,MIC,"[15]; agar-dilution, read-out: MIC",> 128 µg/mL
same,MIC,[16],4 µg/mL
same,MIC,[17],32 µg/mL
same,MIC,[18],32 µg/mL
same,MIC,[19],4 µg/mL
same,MIC,"Escherichia coli EC14; agar-dilution, read-out: MIC",> 128 µg/mL
same,MIC,[20],8 µg/mL
same,MIC,[21],32 µg/mL
same,MIC,[22],64 µg/mL
same,MIC,[23],32 µg/mL
same,MIC,"[24]; agar-dilution, read-out: MIC",> 128 µg/mL
same,MIC,[25]; [32],> 128 µg/mL
same,ED50,"[26]; C203, Oral",87.1 mg/kg
same,ED50,"[26]; C203, sc, Subcutaneous",> 10 mg/kg
same,MIC,[27],32 µg/mL
same,MIC,[28],0.5 µg/mL
